Experimental data as given in patent publication US9394352B2, “Immunogenic POTE peptides and methods of use” (The United States of America, as represented by the …, priority 2010, dated 2016).
Where no end group is shown, it is not given here.

What follows are sequences tested on NCI-H522 cells (POTE+/HLA-A2) (assay: CTL cytotoxicity against human cancer cells). Conditions: HHD-2 mice immunized with 50 nmol peptide, restimulated 7 days with 1000 nM peptide; POTE-expressing NCI-H522 human lung cancer cells.
Assay type: cell-based
Description: FIGS. 8A-8B are graphs showing anti-tumor cytotoxicity induced by enhanced POTE epitopes. AAD mice were immunized s.c. with 50 nmol of peptide in 100 μl of emulsion. (FIG. 8A) Anti-tumor cytotoxicity against a POTE-expressing human lung cancer cell line NCI-H522 induced by POTE 553-1Y, 323-3F and 252-9V. HHD-2 mice were immunized with 50 nmol of peptide in 100 μl of emulsion and restimulated for 7 days with 1000 nM peptide before being tested for ability to lyse the tumor cells. (FIG. 8B) Summary of the anti-tumor cytotoxicity in POTE-expressing and non-POTE-expressing human tumor cells. NCI-H522 is a human lung cancer line expressing both POTE and HLA-A2, whereas HTB-19 is a human mammary carcinoma that expresses POTE but not HLA-A2, and MDA-MB-231 is a human mammary carcinoma cell line expressing HLA-A2 but not POTE.
AAD or HHD-2 mice were immunized subcutaneously (s.c.) in the base of the tail with 100 μl of an emulsion containing 1:1 incomplete Freund's adjuvant (Sigma) and PBS with peptides and cytokines (50 nmol of CTL epitope, 50 nmol of hepatitis B virus core 128-140 helper epitope, 5 μg of mouse interleukin-12, and 5 μg of mouse granulocyte macrophage colony-stimulating factor). Cytokines were purchased from Peprotech (Rocky Hill, N.J.). Mice were boosted 2 weeks later, and the spleens were removed 2 weeks after the boost. For all experiments, groups of three mice were used.
Splenocytes from the immunized mice were re-stimulated with peptide-loaded splenocytes (1 μM, or 10 nM). On day 1 and day 5, rat T STIM™ (BD Bioscience) was added as a source of IL-2. One week later, CTL activity was measured by using a 4-hour ^51Cr releasing assay. […] The percentage of specific ^51Cr release is calculated as 100× [(experimental release-spontaneous release)/(maximum release-spontaneous release)]. Spontaneous release is determined from target cells incubated without effector cells, and maximum release is determined in the presence of 5% triton-X. C1R.AAD or C1R.A2.1 cell lines were used as targets. […]

Sequence | anti-tumor cytotoxicity of peptide-induced CTLs
KLMAKALLV [POTE 252-9V] | did not kill POTE-expressing cancer cells
LLFEQNVDV [POTE 323-3F] | produced significant cytotoxicity to lyse NCI-H522 cells
YILEEIESV [POTE 553-1Y] | produced significant cytotoxicity to lyse NCI-H522 cells
